Results: patent US20250098679A1, “HERBICIDAL PYRIDONE DERIVATIVES” (SYNGENTA CROP PROTECTION AG, priority 2021, published 2025)

Key:
Format in all cases: in vivo
Conditions in all cases: evaluated after 13 days
Setaria faberi (SETFA) [1] = test: Pre-emergence Test, Setaria faberi (SETFA)
Zea mays (ZEAMX) [2] = test: Post-emergence Test, Zea mays (ZEAMX); parameters: key to percentage damage caused to the plant, ZEAMX (five-point scale): 5=81-100%, 4=61-80%, 3=41-60%, 2=21-40%, 1=0-20% damage
Method in brief: (§1)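 Application was a spray of acetone/water (50:50) with 0.5% Tween 20 onto pots of test species sown in standard soil. Unless otherwise stated, the rate was 1000 g/ha. After 13 days under glasshouse conditions (24/16 °C, 65% humidity), injury was scored from 1 (0-20%) to 5 (81-100%).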

[3] = tested on: Amaranthus palmeri (AMAPA); test: Pre-emergence Test, Amaranthus palmeri (AMAPA)
[4] = tested on: Amaranthus palmeri (AMAPA); test: Post-emergence Test, Amaranthus palmeri (AMAPA); parameters: key: 5=81-100%, 4=61-80%, 3=41-60%, 2=21-40%, 1=0-20% damage
Method in brief: as §1

[5] = tested on: Ipomoea hederacea (IPOHE); test: Pre-emergence Test, Ipomoea hederacea (IPOHE)
[6] = tested on: Amaranthus retoflexus (AMARE); test: Post-emergence Test, Amaranthus retoflexus (AMARE); parameters: key to percentage damage caused to the plant, AMARE (five-point scale): 5=81-100%, 4=61-80%, 3=41-60%, 2=21-40%, 1=0-20% damage
Method in brief: as §1

[7] = tested on: Echinochloa crus-galli (ECHCG); test: Post-emergence Test, Echinochloa crus-galli (ECHCG); parameters: key to percentage damage caused to the plant, ECHCG (five-point scale): 5=81-100%, 4=61-80%, 3=41-60%, 2=21-40%, 1=0-20% damage
Method in brief: as §1

[8] = tested on: Echinochloa crus-galli (ECHCG); test: Pre-emergence Test, Echinochloa crus-galli (ECHCG)
Zea mays (ZEAMX) [9] = test: Pre-emergence Test, Zea mays (ZEAMX)
Setaria faberi (SETFA) [10] = test: Post-emergence Test, Setaria faberi (SETFA); parameters: key to percentage damage caused to the plant, SETFA (five-point scale): 5=81-100%, 4=61-80%, 3=41-60%, 2=21-40%, 1=0-20% damage
Method in brief: as §1

[11] = tested on: Amaranthus retoflexus (AMARE); test: Pre-emergence Test, Amaranthus retoflexus (AMARE)
[12] = tested on: Ipomoea hederacea (IPOHE); test: Post-emergence Test, Ipomoea hederacea (IPOHE); parameters: key to percentage damage caused to the plant, IPOHE (five-point scale): 5=81-100%, 4=61-80%, 3=41-60%, 2=21-40%, 1=0-20% damage
Method in brief: as §1

| Compound | Pre-emergence Test SETFA, percentage damage caused to the plant (five-point scale) (Setaria faberi (SETFA) [1]; 1000 g/ha) | percentage damage caused to the plant, ZEAMX (five-point scale) (Zea mays (ZEAMX) [2]; 1000 g/ha) | Pre-emergence Test AMAPA, percentage damage caused to the plant (five-point scale) ([3]; 1000 g/ha) | percentage damage caused to the plant, AMAPA (five-point scale) ([4]; 1000 g/ha) | Pre-emergence Test IPOHE, percentage damage caused to the plant (five-point scale) ([5]; 1000 g/ha) | percentage damage caused to the plant, AMARE (five-point scale) ([6]; 1000 g/ha) | percentage damage caused to the plant, ECHCG (five-point scale) ([7]; 1000 g/ha) | Pre-emergence Test ECHCG, percentage damage caused to the plant (five-point scale) ([8]; 1000 g/ha) | Pre-emergence Test ZEAMX, percentage damage caused to the plant (five-point scale) (Zea mays (ZEAMX) [9]; 1000 g/ha) | percentage damage caused to the plant, SETFA (five-point scale) (Setaria faberi (SETFA) [10]; 1000 g/ha) | Pre-emergence Test AMARE, percentage damage caused to the plant (five-point scale) ([11]; 1000 g/ha) | percentage damage caused to the plant, IPOHE (five-point scale) ([12]; 1000 g/ha) | Pre-emergence Test SETFA, percentage damage caused to the plant (five-point scale) (Setaria faberi (SETFA) [1]; 250 g/Ha (*)) | percentage damage caused to the plant, ZEAMX (five-point scale) (Zea mays (ZEAMX) [2]; 250 g/Ha) | Pre-emergence Test AMAPA, percentage damage caused to the plant (five-point scale) ([3]; 250 g/Ha (*)) | percentage damage caused to the plant, AMAPA (five-point scale) ([4]; 250 g/Ha) | Pre-emergence Test IPOHE, percentage damage caused to the plant (five-point scale) ([5]; 250 g/Ha (*)) | percentage damage caused to the plant, AMARE (five-point scale) ([6]; 250 g/Ha) | percentage damage caused to the plant, ECHCG (five-point scale) ([7]; 250 g/Ha) | Pre-emergence Test ECHCG, percentage damage caused to the plant (five-point scale) ([8]; 250 g/Ha (*)) | other results |
| --- | --- | --- | --- | --- | --- | --- | --- | --- | --- | --- | --- | --- | --- | --- | --- | --- | --- | --- | --- | --- | --- |
| CCn1c(Cn2ccnn2)cc(=O)c(C(=O)O)c1-c1ccc(Cl)c(Cl)c1 [Compound 45, 2-(3,4-dichlorophenyl)-1-ethyl-4-oxo-6-(triazol-1-ylmethyl)pyridine-3-carboxylic acid] | 1 (1=0-20%) | 0 | 1 (1=0-20%) | 1 (1=0-20%) | 0 | 0 | 1 (1=0-20%) | 4 (4=61-80%) | 0 | 1 (1=0-20%) | 0 | 0 | – | – | – | – | – | – | – | – | – |
| CCn1c(Cn2cc(C(F)F)cn2)cc(=O)c(C(=O)O)c1-c1ccc(Cl)c(Cl)c1 [Compound 109, 2-(3,4-dichlorophenyl)-6-[[4-(difluoromethyl)pyrazol-1-yl]methyl]-1-ethyl-4-oxo-pyridine-3-carboxylic acid] | 5 (5=81-100%) | 3 (3=41-60%) | 0 | 3 (3=41-60%) | 4 (4=61-80%) | 1 (1=0-20%) | 4 (4=61-80%) | 5 (5=81-100%) | 0 | 4 (4=61-80%) | 0 | 3 (3=41-60%) | 2 (2=21-40%) | 1 (1=0-20%) | 0 | 0 | 1 (1=0-20%) | 0 | 3 (3=41-60%) | 3 (3=41-60%) | Pre-emergence Test ZEAMX, percentage damage caused to the plant (five-point scale) (Zea mays (ZEAMX) [9]; 250 g/Ha (*)): 0; percentage damage caused to the plant, SETFA (five-point scale) (Setaria faberi (SETFA) [10]; 250 g/Ha): 1 (1=0-20%); Pre-emergence Test AMARE, percentage damage caused to the plant (five-point scale) ([11]; 250 g/Ha (*)): 0; percentage damage caused to the plant, IPOHE (five-point scale) ([12]; 250 g/Ha): 2 (2=21-40%) |
| CCn1c(Cn2nccc2Cl)cc(=O)c(C(=O)O)c1-c1ccc(Cl)c(Cl)c1 [Compound 80, 6-[(5-chloropyrazol-1-yl)methyl]-2-(3,4-dichlorophenyl)-1-ethyl-4-oxo-pyridine-3-carboxylic acid] | 5 (5=81-100%) | 3 (3=41-60%) | 1 (1=0-20%) | 2 (2=21-40%) | 3 (3=41-60%) | 2 (2=21-40%) | 4 (4=61-80%) | 5 (5=81-100%) | 0 | 4 (4=61-80%) | 0 | 3 (3=41-60%) | 4 (4=61-80%) | 1 (1=0-20%) | 1 (1=0-20%) | 2 (2=21-40%) | 2 (2=21-40%) | 2 (2=21-40%) | 3 (3=41-60%) | 3 (3=41-60%) | Pre-emergence Test ZEAMX, percentage damage caused to the plant (five-point scale) (Zea mays (ZEAMX) [9]; 250 g/Ha (*)): 0; percentage damage caused to the plant, SETFA (five-point scale) (Setaria faberi (SETFA) [10]; 250 g/Ha): 3 (3=41-60%); Pre-emergence Test AMARE, percentage damage caused to the plant (five-point scale) ([11]; 250 g/Ha (*)): 0; percentage damage caused to the plant, IPOHE (five-point scale) ([12]; 250 g/Ha): 4 (4=61-80%) |
| CCn1c(Cn2cnc([N+](=O)[O-])c2)cc(=O)c(C(=O)O)c1-c1ccc(Cl)c(Cl)c1 [Compound 50, 2-(3,4-dichlorophenyl)-1-ethyl-6-[(4-nitroimidazol-1-yl)methyl]-4-oxo-pyridine-3-carboxylic acid] | 0 | 1 (1=0-20%) | 1 (1=0-20%) | 3 (3=41-60%) | 0 | 0 | 1 (1=0-20%) | 1 (1=0-20%) | 0 | 2 (2=21-40%) | 1 (1=0-20%) | 2 (2=21-40%) | – | – | – | – | – | – | – | – | – |
| CCn1c(Cn2nc(C(F)(F)F)cc2OC)cc(=O)c(C(=O)O)c1-c1ccc(Cl)c(Cl)c1 [Compound 145, 2-(3,4-dichlorophenyl)-1-ethyl-6-[[5-methoxy-3-(trifluoromethyl)pyrazol-1-yl]methyl]-4-oxo-pyridine-3-carboxylic acid] | 5 (5=81-100%) | 3 (3=41-60%) | 0 | 3 (3=41-60%) | 3 (3=41-60%) | 3 (3=41-60%) | 4 (4=61-80%) | 4 (4=61-80%) | 0 | 4 (4=61-80%) | 1 (1=0-20%) | 3 (3=41-60%) | 5 (5=81-100%) | 1 (1=0-20%) | 0 | 0 | 0 | 1 (1=0-20%) | 3 (3=41-60%) | 2 (2=21-40%) | Pre-emergence Test ZEAMX, percentage damage caused to the plant (five-point scale) (Zea mays (ZEAMX) [9]; 250 g/Ha (*)): 0; percentage damage caused to the plant, SETFA (five-point scale) (Setaria faberi (SETFA) [10]; 250 g/Ha): 3 (3=41-60%); Pre-emergence Test AMARE, percentage damage caused to the plant (five-point scale) ([11]; 250 g/Ha (*)): 0; percentage damage caused to the plant, IPOHE (five-point scale) ([12]; 250 g/Ha): 3 (3=41-60%) |
